Experimental findings from patent publication US20250304567A1, “PYRROLIDIONE DERIVATIVES AS INHIBITORS OF NF KAPPA B INDUCING KINASE” (priority 2022, published 2025) are described below.

As usually defined, the IC50 is the concentration needed to halve the response being measured.

The subject of assay [1] is p-IKKa levels in L363 (NIK translocated multiple myeloma) cells. Description: Effect of compounds on p-IKKa levels in L363 (NIK translocated multiple myeloma) cells (AlphaLISA SureFire Ultra p-IKKa Ser176/180). Type of assay: cell-based, human. The conditions noted are these: Homo sapiens, L-363, p-IKKa levels in L363 cells; average if tested more than once; read-out: Assay 2 IC50. The method, boiled down:
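L363 multiple myeloma cells, BAFF-stimulated overnight (250 ng/ml), then 6 h at 37 °C with compound (11-point 1:3 series, 0.3% DMSO) plus BAFF and 10 μM MG132. p-IKKa Ser176/180 read by AlphaLISA SureFire Ultra; IC50 from sigmoidal fit normalised to stimulated and unstimulated controls.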
Background: In Alpha technology, singlet oxygen from a donor bead excites a nearby acceptor bead.

For assay [2], the target named is Recombinant Human NF-kappaB-Inducing Kinase (NIK/MAP3K14) (Homo sapiens, UniProt Q99558). Description: Inhibition of auto-phosphorylation of recombinant human NIK/MAP3K14 activity (AlphaScreen). The conditions noted are these: 5 μM ATP, 1 nM NIK, average if tested more than once. Type of assay: biochemical. The method, boiled down:
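GST-tagged NIK (1 nM) auto-phosphorylation with 5 μM ATP, 2 h at 25 °C, pH 7.5 Tris buffer, 0.7% DMSO; stopped with anti-phospho-IKK Ser176/180 antibody and read by AlphaScreen. Signal normalized to full-activity and no-enzyme/no-ATP controls; IC50 from sigmoidal fit of % inhibition vs log concentration.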

Sequence of Recombinant Human NF-kappaB-Inducing Kinase (NIK/MAP3K14) (Q99558 whole entry): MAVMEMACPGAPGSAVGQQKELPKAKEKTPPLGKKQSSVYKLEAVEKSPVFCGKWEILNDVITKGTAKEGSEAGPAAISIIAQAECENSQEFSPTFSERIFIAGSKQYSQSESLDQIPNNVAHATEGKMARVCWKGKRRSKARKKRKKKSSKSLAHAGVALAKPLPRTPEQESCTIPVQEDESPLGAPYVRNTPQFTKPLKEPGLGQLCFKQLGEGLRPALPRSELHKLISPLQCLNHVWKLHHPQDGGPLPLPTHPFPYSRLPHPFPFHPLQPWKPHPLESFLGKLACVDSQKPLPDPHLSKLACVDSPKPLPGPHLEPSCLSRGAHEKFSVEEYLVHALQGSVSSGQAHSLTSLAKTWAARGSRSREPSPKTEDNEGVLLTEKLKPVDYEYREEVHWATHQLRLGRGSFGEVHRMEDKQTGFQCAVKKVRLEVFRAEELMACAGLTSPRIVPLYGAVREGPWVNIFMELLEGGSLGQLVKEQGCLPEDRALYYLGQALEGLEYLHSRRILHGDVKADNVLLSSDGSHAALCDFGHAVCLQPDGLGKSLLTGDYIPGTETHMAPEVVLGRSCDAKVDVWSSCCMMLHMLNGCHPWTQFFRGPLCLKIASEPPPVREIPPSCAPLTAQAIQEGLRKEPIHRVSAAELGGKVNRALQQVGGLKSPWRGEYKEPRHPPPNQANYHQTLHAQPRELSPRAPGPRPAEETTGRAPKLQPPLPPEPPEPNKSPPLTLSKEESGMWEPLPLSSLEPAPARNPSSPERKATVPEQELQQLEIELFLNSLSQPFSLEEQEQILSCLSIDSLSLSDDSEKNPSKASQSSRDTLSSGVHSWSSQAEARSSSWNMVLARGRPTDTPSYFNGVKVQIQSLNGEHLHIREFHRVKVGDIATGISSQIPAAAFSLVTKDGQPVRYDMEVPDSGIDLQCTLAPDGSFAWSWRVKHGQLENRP

On to `COCCn1cc(Nc2nccc(-c3csc(-c4cccc([C@]5(O)CCN(C)C5=O)c4)n3)n2)cn1` [Example 265, (R)-3-Hydroxy-3-(3-(4-(2-((1-(2-methoxyethyl)-1H-pyrazol-4-yl)amino)pyrimidin-4-yl)thiazol-2-yl)phenyl)-1-methylpyrrolidin-2-one], for which the IC50 in assay [1] is 100 to 500 nM; in assay [2], less than 100 nM.
With `CN1CC[C@@](O)(c2cccc(-c3nc(-c4ccnc(Nc5ccon5)n4)cs3)c2)C1=O` [Example 266, (R)-3-Hydroxy-3-(3-(4-(2-(isoxazol-3-ylamino)pyrimidin-4-yl)thiazol-2-yl)phenyl)-1-methylpyrrolidin-2-one], the concentration for half-maximal inhibition (IC50) in assay [1] is 100 to 500 nM; in assay [2], less than 100 nM.
The like results for `CN1CC[C@@](O)(c2cccc(-c3nc(-c4ccnc(Nc5ccnnc5)n4)cs3)c2)C1=O` [Example 267, (R)-3-hydroxy-1-methyl-3-(3-(4-(2-(pyridazin-4-ylamino)pyrimidin-4-yl)thiazol-2-yl)phenyl)pyrrolidin-2-one] were, in that order, greater than 501 nM and greater than 501 nM.
Turning to `CCn1cc(Nc2nccc(-c3csc(-c4cccc([C@]5(O)CCN(C)C5=O)c4)n3)n2)cn1` [Example 268, (R)-3-(3-(4-(2-((1-ethyl-1H-pyrazol-4-yl)amino)pyrimidin-4-yl)thiazol-2-yl)phenyl)-3-hydroxy-1-methylpyrrolidin-2-one], the IC50 in assay [1] is 100 to 500 nM; in assay [2] it was less than 100 nM.
With `Cc1nn(C)cc1Nc1nccc(-c2csc(-c3cccc([C@]4(O)CCN(C)C4=O)c3)n2)n1` [Example 269, (R)-3-(3-(4-(2-((1,3-dimethyl-1H-pyrazol-4-yl)amino)pyrimidin-4-yl)thiazol-2-yl)phenyl)-3-hydroxy-1-methylpyrrolidin-2-one], the IC50 in assay [1] and in assay [2] was less than 100 nM throughout.
As to `CCn1cc(Nc2nccc(-c3csc(-c4cccc([C@]5(O)CCN(C)C5=O)c4)n3)n2)c(C)n1` [Example 270, (R)-3-(3-(4-(2-((1-Ethyl-3-methyl-1H-pyrazol-4-yl)amino)pyrimidin-4-yl)thiazol-2-yl)phenyl)-3-hydroxy-1-methylpyrrolidin-2-one], the IC50 in assay [1] and in assay [2] was less than 100 nM each time.
Turning to `CN1CC[C@@](O)(c2cccc(-c3nc(-c4ccnc(Nc5cnn(C(F)F)c5)n4)cs3)c2)C1=O` [Example 271, (R)-3-(3-(4-(2-((1-(Difluoromethyl)-1H-pyrazol-4-yl)amino)pyrimidin-4-yl)thiazol-2-yl)phenyl)-3-hydroxy-1-methylpyrrolidin-2-one], the IC50 in assay [1] was 100 to 500 nM; in assay [2], less than 100 nM.
The like results for `CN1CC[C@@](O)(c2cccc(-c3nc(-c4ccnc(Nc5nc6ccccc6n5C)n4)cs3)c2)C1=O` [Example 272, (R)-3-Hydroxy-1-methyl-3-(3-(4-(2-((1-methyl-1H-benzo[d]imidazol-2-yl)amino)pyrimidin-4-yl)thiazol-2-yl)phenyl)pyrrolidin-2-one] were, in that order, greater than 501 nM and greater than 501 nM.
The corresponding values for `CN1CC[C@@](O)(c2cccc(-c3nc(-c4ccnc(Nc5cnn(C6CCOCC6)c5)n4)cs3)c2)C1=O` [Example 273, (R)-3-Hydroxy-1-methyl-3-(3-(4-(2-((1-(tetrahydro-2H-pyran-4-yl)-1H-pyrazol-4-yl)amino)pyrimidin-4-yl)thiazol-2-yl)phenyl)pyrrolidin-2-one] are less than 100 nM and less than 100 nM.
The corresponding values for `Cc1cnoc1Nc1nccc(-c2csc(-c3cccc([C@]4(O)CCN(C)C4=O)c3)n2)n1` [Example 274, (R)-3-Hydroxy-1-methyl-3-(3-(4-(2-((4-methylisoxazol-5-yl)amino)pyrimidin-4-yl)thiazol-2-yl)phenyl)pyrrolidin-2-one] are greater than 501 nM and greater than 501 nM.
As to `Cc1nocc1Nc1nccc(-c2csc(-c3cccc([C@]4(O)CCN(C)C4=O)c3)n2)n1` [Example 275, (R)-3-Hydroxy-1-methyl-3-(3-(4-(2-((3-methylisoxazol-4-yl)amino)pyrimidin-4-yl)thiazol-2-yl)phenyl)pyrrolidin-2-one], the IC50 in assay [1] and in assay [2] was less than 100 nM throughout.
On to `CC(C)n1cc(Nc2nccc(-c3csc(-c4cccc([C@]5(O)CCN(C)C5=O)c4)n3)n2)cn1` [Example 276, (R)-3-Hydroxy-3-(3-(4-(2-((1-isopropyl-1H-pyrazol-4-yl)amino)pyrimidin-4-yl)thiazol-2-yl)phenyl)-1-methylpyrrolidin-2-one], for which the half-maximal inhibitory concentration (IC50) in assay [1] and in assay [2] was less than 100 nM in each case.
Consider `CN1CC[C@@](O)(c2cccc(-c3nc(-c4ccnc(Nc5cc6ccccn6n5)n4)cs3)c2)C1=O` [Example 277, (R)-3-Hydroxy-1-methyl-3-(3-(4-(2-(pyrazolo[1,5-a]pyridin-2-ylamino)pyrimidin-4-yl)thiazol-2-yl)phenyl)pyrrolidin-2-one], for which the IC50 was greater than 501 nM in assay [1] and 100 to 500 nM in assay [2].
The corresponding values for `CN1CC[C@@](O)(c2cccc(-c3nc(-c4ccnc(Nc5ccnn5CC(F)F)n4)cs3)c2)C1=O` [Example 278, (R)-3-(3-(4-(2-((1-(2,2-Difluoroethyl)-1H-pyrazol-5-yl)amino)pyrimidin-4-yl)thiazol-2-yl)phenyl)-3-hydroxy-1-methylpyrrolidin-2-one] are greater than 501 nM and 100 to 500 nM.
On to `CN1CC[C@@](O)(c2cccc(-c3nc(-c4ccnc(Nc5cnc6ccc(F)cn56)n4)cs3)c2)C1=O` [Example 279, (R)-3-(3-(4-(2-((6-Fluoroimidazo[1,2-a]pyridin-3-yl)amino)pyrimidin-4-yl)thiazol-2-yl)phenyl)-3-hydroxy-1-methylpyrrolidin-2-one], for which the IC50 in assay [1] and in assay [2] was greater than 501 nM in each case.
As to `CN1CC[C@@](O)(c2cccc(-c3nc(-c4ccnc(Nc5cn(C)nc5C(F)(F)F)n4)cs3)c2)C1=O` [Example 280, (R)-3-Hydroxy-1-methyl-3-(3-(4-(2-((1-methyl-3-(trifluoromethyl)-1H-pyrazol-4-yl)amino)pyrimidin-4-yl)thiazol-2-yl)phenyl)pyrrolidin-2-one], the IC50 is 100 to 500 nM in assay [1] and less than 100 nM in assay [2].
`CN1CC[C@@](O)(c2cccc(-c3nc(-c4ccnc(Nc5cc(C(F)(F)F)nn5C)n4)cs3)c2)C1=O` [Example 281, (R)-3-Hydroxy-1-methyl-3-(3-(4-(2-((1-methyl-3-(trifluoromethyl)-1H-pyrazol-5-yl)amino)pyrimidin-4-yl)thiazol-2-yl)phenyl)pyrrolidin-2-one]: the IC50 in assay [1] was greater than 501 nM; in assay [2] it was less than 100 nM.
For the molecule `CN1CC[C@@](O)(c2cccc(-c3nc(-c4ccnc(Nc5cccnc5OC(F)F)n4)cs3)c2)C1=O` [Example 282, (R)-3-(3-(4-(2-((2-(Difluoromethoxy)pyridin-3-yl)amino)pyrimidin-4-yl)thiazol-2-yl)phenyl)-3-hydroxy-1-methylpyrrolidin-2-one], the IC50 in assay [1] was 100 to 500 nM; in assay [2] it was less than 100 nM.
The corresponding values for `CN1CC[C@@](O)(c2cccc(-c3nc(-c4ccnc(Nc5cn(C)nn5)n4)cs3)c2)C1=O` [Example 283, (R)-3-hydroxy-1-methyl-3-(3-(4-(2-((1-methyl-1H-1,2,3-triazol-4-yl)amino)pyrimidin-4-yl)thiazol-2-yl)phenyl)pyrrolidin-2-one] are 100 to 500 nM and less than 100 nM.
Take `CN1CC[C@@](O)(c2cccc(-c3nc(-c4ccnc(Nc5ccn(-c6ccccc6)n5)n4)cs3)c2)C1=O` [Example 284, (R)-3-hydroxy-1-methyl-3-(3-(4-(2-((1-phenyl-1H-pyrazol-3-yl)amino)pyrimidin-4-yl)thiazol-2-yl)phenyl)pyrrolidin-2-one]: the IC50 in assay [1] was 100 to 500 nM; in assay [2] it was less than 100 nM.
The like results for `CN1CC[C@@](O)(c2cccc(-c3nc(-c4ccnc(Nc5ccn(C(C)(C)C)n5)n4)cs3)c2)C1=O` [Example 285, (R)-3-(3-(4-(2-((1-(tert-butyl)-1H-pyrazol-3-yl)amino)pyrimidin-4-yl)thiazol-2-yl)phenyl)-3-hydroxy-1-methylpyrrolidin-2-one] were, in that order, 100 to 500 nM and less than 100 nM.
For `CN1CC[C@@](O)(c2cccc(-c3nc(-c4ccnc(Nc5ccn(CCO)n5)n4)cs3)c2)C1=O` [Example 286, (R)-3-hydroxy-3-(3-(4-(2-((1-(2-hydroxyethyl)-1H-pyrazol-3-yl)amino)pyrimidin-4-yl)thiazol-2-yl)phenyl)-1-methylpyrrolidin-2-one], the half-inhibitory concentration (IC50) in assay [1] was 100 to 500 nM; in assay [2], less than 100 nM.
The like results for `CN1CC[C@@](O)(c2cccc(-c3nc(-c4ccnc(Nc5cnn(CC6CC6)c5)n4)cs3)c2)C1=O` [Example 287, (R)-3-(3-(4-(2-((1-(cyclopropylmethyl)-1H-pyrazol-4-yl)amino)pyrimidin-4-yl)thiazol-2-yl)phenyl)-3-hydroxy-1-methylpyrrolidin-2-one] were, in that order, 100 to 500 nM and less than 100 nM.
The corresponding values for `CN1CC[C@@](O)(c2cccc(-c3nc(-c4ccnc(Nc5ccn(CC6CC6)n5)n4)cs3)c2)C1=O` [Example 288, (R)-3-(3-(4-(2-((1-(cyclopropylmethyl)-1H-pyrazol-3-yl)amino)pyrimidin-4-yl)thiazol-2-yl)phenyl)-3-hydroxy-1-methylpyrrolidin-2-one] are 100 to 500 nM and less than 100 nM.
